This note sets out measurements from US20230097801A1, “METHODS OF INCREASING CELL PHAGOCYTOSIS” (National Health Research Institutes, priority 2021, published 2023).

Entries after “also recorded” stand apart in the source; their conditions may differ.

The subject of test [1] is CD47. The test can be described thus: Flow cytometry, anti-human CD47 2D3 control antibody binding on Raji cell surface. It is filed as cell-based. Conditions: Raji cells. The protocol:
Antibody conjugates and extracellular domain of SIRPα used to analyze cell surface CD47 binding include anti-human CD47 CC2C6, 2D3, recombinant human SIRPα/CD172a Fc chimer protein, and anti-human IgG Fc. To determine inhibition of CD47 binding, cancer cells were treated with compounds of formula (I) at various concentrations for 4 days. Thereafter, the cells were washed with PBS containing 0.5% BSA (FACS buffer) followed by incubation with fluorochrome-labeled antibodies to human CD47 (i.e., CC2C6 and 2D3) at 1:50 dilution in FACS buffer for 30 minutes at 4° C. Compounds of formula (I) produced a dose-dependent inhibition of anti-CD47 CC2C6 antibody that recognized CD47 and SIRPα binding site on the tumor cell surface including B-cell lymphoma Raji cells, colon cancer cells DLD-1, and ovarian cancer SK-OV-3 cells (see FIGS. 1A, 1B, and 1C, respectively).

In test [2] the test system is human B-cell lymphoma Raji xenograft tumor. Briefly: Raji xenograft anti-tumor efficacy and survival study (3 weeks treatment). Type of test: in vivo, NOD/SCID mice. Conditions: Compound 34 100 mg/kg p.o. QD*5, rituximab 10 mg/kg i.p. 2QW. An excerpt:
Human B-cell lymphoma Raji cells were used to evaluate the efficacy of Compound 34 and rituximab in treating cancer cells. Prior to injection into animals, the cancer cells were detected as free of Mycoplasma spp. NOD/SCID mice (BioLasco, Taiwan) were used for in vivo experiments due to their higher affinity of SIRPα to human CD47. The mice used in these studies were housed in Institutional Animal Care and Use Committees-approved facility at National Health Research Institutes in accordance with guidelines for the care and use of laboratory animals.
One million Raji cells in culture medium and matrigel (1:1, v/v) were injected subcutaneously into the left flank region of the mice (n=7 to 10 animals per group). Treatments were initiated after randomization with inclusion of tumors at approximately 100 mm^3. A dosing vehicle for Compound 34 was prepared using 10% DMA: 40% PEG400: 50% (1% CMC) (v/v/v) and was dosed orally (p.o.) at 100 mg/kg once a day, 5 days a week (Q.D.*5). Rituximab (Roche-Genentech, South San Francisco, Calif.) stock solution was diluted with PBS and dosed at 10 mg/kg twice a week (2QW) by intraperitoneal (i.p.) injection.
To evaluate anti-tumor efficacy and survival rates, mice were treated with vehicle control, 10 mg/kg rituximab (2QW, i.p.), 100 mg/kg Compound 34 (QD*5), or rituximab in combination with Compound 34. Treatment was discontinued at the end of 3 weeks. The mice were monitored for cancer growth and body weight once a week. Cancer growth was measured by volume with an electronic caliper. The volume was calculated as L×W^2/2, in which L is the length of the tumor and W is its width. Tumor size and animal body weight were measured once a week after cancer cell inoculation. Cancer response at the end of the study was calculated as tumor growth inhibition (TGI) using (1−T/C)*100, in which T is the mean tumor volume (mm^3) of the test group, and C is the mean tumor volume (mm^3) of the vehicle-treated group. […] For the survival study, treatment was discontinued at the end of 3 weeks. Thereafter, mice were followed up for tumor growth and body weight once a week. The mice were then sacrificed when tumor volume reached 2,000 mm^3 or body weight loss was greater than 10%. Kaplan-Meier plots were used as the study end point to calculate percentage of animals remaining in the study in term of the time. The median survival days for vehicle control and Compound 34 were 15.5 days and 18 days, respectively (FIG. 5E). Rituximab prolonged median survival days to 28 days after treatment discontinued (FIGS. 5C and 5E). Importantly, the combination of rituximab and Compound 34 further prolonged median survival days to 47 days (FIGS. 5D and 5E).

With `O=C1NC[C@H](c2ccc(-c3csc(C(F)(F)F)c3)c(F)c2F)N1c1ccc2[nH]cnc2c1` [Compound 34], in test [1], the “inhibition of binding of anti-human CD47 antibody 2D3 (in words)” value is given as “not by anti-CD47 control antibody 2D3; also recorded: did not inhibit”. Moreover, in test [2] (3 weeks), the “tumor growth inhibition (TGI, % of control)” value is 41.4%. Further, the median survival days in test [2] (treatment discontinued at 3 weeks) amounted to 18 days.
